This assay addresses T1, human liver glycogen phosphorylase a (HLGPa) (Homo sapiens, UniProt P06737).
T1 construct: creating a full-length cDNA fused at the 5′ end to codons for methionine-glycine-alanine-histidine; 6xHis tag (leader Met-Gly-Ala-His6-Gly-Gly) (N); made in house; host or cells: E. coli (bacterial expression plasmid pTXK1007LTev)
T1 sequence (P06737 2-847 limits assumed): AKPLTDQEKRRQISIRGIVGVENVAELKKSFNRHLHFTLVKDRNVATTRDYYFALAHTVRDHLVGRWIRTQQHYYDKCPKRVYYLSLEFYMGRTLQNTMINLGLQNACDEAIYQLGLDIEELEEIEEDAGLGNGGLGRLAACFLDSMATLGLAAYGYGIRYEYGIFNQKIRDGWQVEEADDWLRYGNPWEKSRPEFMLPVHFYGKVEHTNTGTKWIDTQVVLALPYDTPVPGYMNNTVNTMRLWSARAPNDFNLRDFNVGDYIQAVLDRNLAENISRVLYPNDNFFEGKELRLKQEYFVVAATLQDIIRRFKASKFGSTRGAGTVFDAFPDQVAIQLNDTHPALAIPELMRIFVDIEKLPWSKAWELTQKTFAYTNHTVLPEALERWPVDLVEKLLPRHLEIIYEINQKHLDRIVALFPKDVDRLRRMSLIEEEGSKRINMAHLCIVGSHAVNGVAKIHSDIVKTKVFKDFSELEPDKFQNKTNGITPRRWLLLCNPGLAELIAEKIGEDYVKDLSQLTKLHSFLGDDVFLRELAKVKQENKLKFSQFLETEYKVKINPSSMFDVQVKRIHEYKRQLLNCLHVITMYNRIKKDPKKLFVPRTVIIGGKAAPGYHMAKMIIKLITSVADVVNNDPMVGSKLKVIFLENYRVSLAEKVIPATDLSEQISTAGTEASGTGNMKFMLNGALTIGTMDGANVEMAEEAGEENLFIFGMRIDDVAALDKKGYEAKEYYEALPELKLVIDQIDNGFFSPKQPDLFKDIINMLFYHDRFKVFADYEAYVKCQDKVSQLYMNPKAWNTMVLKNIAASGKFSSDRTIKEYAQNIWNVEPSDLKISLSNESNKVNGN
The experiment in a line: Human liver glycogen phosphorylase a enzymatic activity assay (coupled, fluorescent resorufin readout, with and without 10 mM glucose). It counts as biochemical. To be noted: human liver glycogen phosphorylase a; table does not say whether with or without 10 mM glucose.

As a reminder, the IC50 is the midpoint of a concentration-inhibition curve.

For the compound `Cc1cc(C)c(NC(=O)Nc2cc(-c3ccc(OC(F)(F)F)cc3)ccc2C(=O)N[C@H](C(=O)O)C2CCCCC2)c(C)c1` [Example 204, (2S)-Cyclohexyl({[4′-[(trifluoromethyl)oxy]-3-({[(2,4,6-trimethylphenyl)amino]carbonyl}amino)-4-biphenylyl]carbonyl}amino)ethanoic acid], the IC50 came to 190 nM.

As to `COc1ccc(-c2ccc(C(=O)N[C@H](c3nn[nH]n3)C3CCCCC3)c(NC(=O)Nc3c(C)cc(C)cc3C)c2)cc1` [Example 205, N—[(S)-cyclohexyl(1H-tetrazol-5-yl)methyl]-4′-(methyloxy)-3-({[(2,4,6-trimethylphenyl)amino]carbonyl}amino)-4-biphenylcarboxamide], half-maximal inhibition (IC50) required 140 nM. Take `CNC(=O)Nc1ccc(C(=O)N[C@H](C(=O)O)C2CCCCC2)c(NC(=O)Nc2c(C)cc(C)cc2C)c1` [Example 206]: the IC50 amounted to 96 nM. Next, `CCCCN(CCCC)c1ccc(C(=O)N[C@H](C(=O)O)C2CCCCC2)c(NC(=O)Nc2c(C)cc(C)cc2C)c1` [Example 207, (2S)-Cyclohexyl({[4-(dibutylamino)-2-({[(2,4,6-trimethylphenyl)amino]carbonyl}amino)phenyl]carbonyl}amino)ethanoic acid]: 16100 nM; `O=C(Nc1cc(F)ccc1C(=O)N[C@H](C(=O)O)C1CCCCC1)Nc1c(Cl)cc(OC(F)(F)F)cc1Cl` [Example 208, (2S)-Cyclohexyl{[(2-{[({2,6-dichloro-4-[(trifluoromethyl)oxy]phenyl}amino)carbonyl]amino}-4-fluorophenyl)carbonyl]amino}ethanoic acid]: 130 nM.

For `Cc1cc(C)c(NC(=O)Nc2cc(-c3ccc(F)c(F)c3)ccc2C(=O)N[C@H](C(=O)O)C2CCCCC2)c(C)c1` [Example 209, (2S)-Cyclohexyl({[3′,4′-difluoro-3-({[(2,4,6-trimethylphenyl)amino]carbonyl}amino)-4-biphenylyl]carbonyl}amino)ethanoic acid], the IC50 is 14 nM. Next, `COc1ccc(-c2ccc(C(=O)N[C@H](C(=O)O)C3CCCC3)c(NC(=O)Nc3c(C)cc(C)cc3C)c2)cc1` [Example 210, (2S)-Cyclopentyl({[4′-(methyloxy)-3-({[(2,4,6-trimethylphenyl)amino]carbonyl}amino)-4-biphenylyl]carbonyl}amino)ethanoic acid]: 14 nM; `Cc1cc(C)c(NC(=O)Nc2cc(F)ccc2C(=O)N[C@H](C(=O)O)C2CCCC2)c(C)c1` [Example 211, (2S)-Cyclopentyl({[4-fluoro-2-({[(2,4,6-trimethylphenyl)amino]carbonyl}amino)phenyl]carbonyl}amino)ethanoic acid]: 290 nM. In the case of `O=C(Nc1cc(-c2ccc(F)c(F)c2)ccc1C(=O)N[C@H](C(=O)O)C1CCCCC1)Nc1c(Cl)cc(OC(F)(F)F)cc1Cl` [Example 212, (2S)-Cyclohexyl{[(3-{[({2,6-dichloro-4-[(trifluoromethyl)oxy]phenyl}amino)carbonyl]amino}-3′,4′-difluoro-4-biphenylyl)carbonyl]amino}ethanoic acid], inhibition was half-maximal at 17 nM (IC50). Then `Cc1cc(C)c(NC(=O)Nc2cc(-c3ccc(CN(C)C)cc3)ccc2C(=O)N[C@H](C(=O)O)C2CCCCC2)c(C)c1` [Example 213, (2S)-Cyclohexyl({[4′-[(dimethylamino)methyl]-3-({[(2,4,6-trimethylphenyl)amino]carbonyl}amino)-4-biphenylyl]carbonyl}amino)ethanoic acid], with 24 nM. On to `O=C(Nc1cc(-c2ccccc2)ccc1C(=O)N[C@H](C(=O)O)C1CCCCC1)Nc1c(Cl)cc(OC(F)(F)F)cc1Cl` [Example 214, (2S)-Cyclohexyl{[(3-{[({2,6-dichloro-4-[(trifluoromethyl)oxy]phenyl}amino)carbonyl]amino}-4-biphenylyl)carbonyl]amino}ethanoic acid], for which the midpoint of inhibition, the IC50, lay at 23 nM.

As for `COc1ccc(-c2ccc(C(=O)N[C@H](C(=O)O)C3CCCCC3)c(NC(=O)Nc3c(Cl)cc(OC(F)(F)F)cc3Cl)c2)cc1` [Example 215, (2S)-Cyclohexyl({[3-{[({2,6-dichloro-4-[(trifluoromethyl)oxy]phenyl}amino)carbonyl]amino}-4′-(methyloxy)-4-biphenylyl]carbonyl}amino)ethanoic acid], the IC50 worked out at 9 nM. Compound `Cc1cc(C)c(NC(=O)Nc2cc(-c3ccc(CN4CCCC4)cc3)ccc2C(=O)N[C@H](C(=O)O)C2CCCCC2)c(C)c1` [Example 216, (2S)-Cyclohexyl({[4′-(1-pyrrolidinylmethyl)-3-({[(2,4,6-trimethylphenyl)amino]carbonyl}amino)-4-biphenylyl]carbonyl}amino)ethanoic acid] had a half-maximal inhibitory concentration (IC50) of 6 nM. Next, `Cc1cc(C)c(NC(=O)Nc2cc(-c3ccc(CN4CCOCC4)cc3)ccc2C(=O)N[C@H](C(=O)O)C2CCCCC2)c(C)c1` [Example 217, (2S)-cyclohexyl({[4′-(4-morpholinylmethyl)-3-({[(2,4,6-trimethylphenyl)amino]carbonyl}amino)-4-biphenylyl]carbonyl}amino)ethanoic acid]: 9 nM. `CCOc1ccc(-c2ccc(C(=O)N[C@H](C(=O)O)C3CCCCC3)c(NC(=O)Nc3c(C)cc(C)cc3C)c2)cc1` [Example 218, (2S)-Cyclohexyl({[4′-(ethyloxy)-3-({[(2,4,6-trimethylphenyl)amino]carbonyl}amino)-4-biphenylyl]carbonyl}amino)ethanoic acid] displayed an IC50 of 7 nM. Compound `CCCC[C@H](NC(=O)c1ccc(-c2ccc(OC)cc2)cc1NC(=O)Nc1c(C)cc(C)cc1C)C(=O)O` [Example 219, N-{[4′-(methyloxy)-3-({[(2,4,6-trimethylphenyl)amino]carbonyl}amino)-4-biphenylyl]carbonyl}-L-norleucine] came in with an IC50 of 15 nM. Then `Cc1cc(C)c(NC(=O)Nc2cc(S(C)(=O)=O)ccc2C(=O)N[C@H](C(=O)O)C2CCCCC2)c(C)c1` [Example 220, (2S)-Cyclohexyl({[4-(methylsulfonyl)-2-({[(2,4,6-trimethylphenyl)amino]carbonyl}amino)phenyl]carbonyl}amino)ethanoic acid], with 1960 nM; and `Cc1cc(C)c(NC(=O)Nc2cc(F)ccc2C(=O)NC2(C(=O)O)CCCCCC2)c(C)c1` [Example 221, 1-({[4-Fluoro-2-({[(2,4,6-trimethylphenyl)amino]carbonyl}amino)phenyl]carbonyl}amino)cycloheptane-carboxylic acid], with 300 nM; and `COc1ccc(-c2ccc(C(=O)NC3(C(=O)O)CCCCCC3)c(NC(=O)Nc3c(C)cc(C)cc3C)c2)cc1` [Example 222, 1-({[4′-(methyloxy)-3-({[(2,4,6-trimethylphenyl)amino]carbonyl}amino)-4-biphenylyl]carbonyl}amino)cycloheptanecarboxylic acid], with 24 nM. Then `Cc1cc(C)c(NC(=O)Nc2cc(-c3ccc(F)cc3)ccc2C(=O)N[C@H](C(=O)O)C2CCCCC2)c(C)c1` [Example 223, (2S)-Cyclohexyl({[4′-fluoro-3-({[(2,4,6-trimethylphenyl)amino]carbonyl}amino)-4-biphenylyl]carbonyl}amino)ethanoic acid], with 9 nM; and `Cc1cc(C)c(NC(=O)Nc2cc(-c3ccc4c(c3)OCO4)ccc2C(=O)N[C@H](C(=O)O)C2CCCCC2)c(C)c1` [Example 224, (2S)-({[4-(1,3-Benzodioxol-5-yl)-2-({[(2,4,6-trimethylphenyl)amino]carbonyl}amino)phenyl]carbonyl}amino)(cyclohexyl)-ethanoic acid], with 3 nM; and `COc1ccc(-c2ccc(C(=O)N[C@H](C(=O)O)[C@@H](C)OC(C)(C)C)c(NC(=O)Nc3c(C)cc(C)cc3C)c2)cc1` [Example 225, O-(1,1-Dimethylethyl)-N-{[4′-(methyloxy)-3-({[(2,4,6-trimethylphenyl)amino]carbonyl}amino)-4-biphenylyl]carbonyl}-L-threonine], with 2 nM.

`Cc1cc(C)c(NC(=O)Nc2cc(F)ccc2C(=O)N[C@H](C(=O)O)[C@@H](C)OC(C)(C)C)c(C)c1` [Example 226, O-(1,1-Dimethylethyl)-N-{[4-fluoro-2-({[(2,4,6-trimethylphenyl)amino]carbonyl}amino)phenyl]carbonyl}-L-threonine] yielded an IC50 of 530 nM. Next, `Cc1cc(C)c(NC(=O)Nc2cc(-c3ccc(F)c(F)c3)ccc2C(=O)NC2(C(=O)O)CCCCCCC2)c(C)c1` [Example 227, 1-({[3′,4′-Difluoro-3-({[(2,4,6-trimethylphenyl)amino]carbonyl}amino)-4-biphenylyl]carbonyl}amino)cyclooctanecarboxylic acid]: 1 nM.

The values above are taken from patent publication US20070249670A1, “Glycogen Phosphorylase Inhibitor Compounds and Pharmaceutical Compositions Thereof” (SMITHKLINE BEECHAM CORPORATION, priority 2004, published 2007).
